Consider 2 molecules from patent US20040192751A1, “Amino acid composition for ameliorating liver failure” (priority 2001, published 2004).

Assay [1] deals with mice in which alcoholic functional disorders of a liver were developed. In words: Serum GOT concentration 12 hours after ethanol administration in mice pre-administered amino acid compositions. It counts as in vivo. Particulars: judged from GOT and GPT values 12 h after ethanol.
Description: In the present Examples, outbreak and healing of functional disorders of a liver were judged by employing GOT (Glutamic Oxaloacetic Transaminase), GPT (Glutamic Pyruvic Transaminase), total cholesterol and triglyceride which are indexes for functional disorders of the liver.
(§1) Measurements were conducted using a clinical diagnosis kit available from Wako Pure Chemical Industries, Ltd.
The following reagents were used for measurement of GOT.
The action of the substrate enzyme liquid to a specimen to be measured generates glutamic acid and oxalacetic acid from L-aspartic acid and α-keto glutaric acid, respectively, by means of GOT in the specimen. […]
The hydrogen peroxide thus produced quantitatively and oxidatively condenses the TOOS and 4-aminoantipyrine to generate violet pigment (refer to Formula 1) by the action of the co-existing peroxidase (POD).
The active value of the GOT in the specimen is measured by the violet absorbance. The ascorbic acid contained in the specimen is decomposed by the ascorbic acid oxidase contained in the substrate enzyme liquid, thereby affecting little influence on the measured value. […]
After a standard specimen having a known concentration prepared by using the standard liquid was preliminarily heated and the substrate buffer was added thereto, the absorbance of the standard specimen was measured and a calibration curve was prepared using the measured values. […]
Assay [2] shares this test system. The assay can be described thus: Total cholesterol amount in the liver 12 hours after ethanol administration. The assay is classed as in vivo. To be noted: 12 hours following the ethanol administration; control = no administration.
Description: as §1
The following reagents were used for the measurement of the total cholesterol.
The action of the color generating agent to a specimen to be measured decomposes the cholesterols into the liberated cholesterols and fatty acids by the action of the cholesterol esterase. The cholesterols thus generated together with the liberated cholesterols already existing are oxidized to produce hydrogen peroxide by means of the action of the cholesterol oxidase. The hydrogen peroxide thus produced quantitatively and oxidatively condenses the phenols and 4-aminoantipyrine to generate red pigment (red quinone-based pigment, refer to Formula 3) by the action of the peroxidase (POD).
The concentration of the total cholesterol in the specimen was determined by measuring the red absorbance.
After 0.01 ml of the specimen was dissolved in isopropanol, 1.5ml of the color producing agent was added therein followed by heating at 37° C. for 10 minutes under sufficient agitation. The absorbance of the specimen at 505 nm was measured by using a blind specimen as reference by means of a spectrophotometer. […]

On to `N[C@@H](Cc1c[nH]c2ccccc12)C(=O)O` [2% Trp, tryptophane], for which the “action for improving functional disorders of the liver using GOT and GPT as the indexes” value in assay [1] was “next most effective”. Also, the “total cholesterol in the liver, compared with control (FIG. 5)” value in assay [2] is on record as “values lower than those of the control”.

With `N[C@@H](Cc1ccc(O)cc1)C(=O)O` [0.25% Tyr, tyrosine], the “action for improving functional disorders of the liver using GOT and GPT as the indexes” value in assay [1] is listed as “next most effective”. Besides, in assay [2], the “total cholesterol in the liver, compared with control (FIG. 5)” value is recorded as “values lower than those of the control”.
